Source: US11480583B2, “Method for the diagnosis and treatment of essential primary hypertension” (Universiteit Maastricht, priority 2020, dated 2022)
“Also recorded” adds a separate entry of the source.

Legend:
[1] = tested on: femoral arteries of aged NOX5 KI and WT mice; assay: Wire myograph, relaxing responses of isolated femoral arteries; set-up: species or system mouse; details: for Reversal of impaired Ach-induced relaxation by antioxidant: femoral arteries of aged KI mice contracted with 10 μM phenylephrine, Ach 10 μM; for Endothelium-independent relaxation induced by PAPA/NO, WT versus KI / Relaxation induced by BAY 60-2770, WT versus KI: femoral arteries, 0.01-10 μM
Protocol: After mice were sacrificed, thoracic aortae, femoral and saphenous arteries were dissected free from perivascular adipose tissue and mounted in a wire myograph (DMT, Aarhus, DK). The organ chamber was filled with Krebs-Ringer bicarbonate-buffered salt solution (KRB) that was continuously aerated with 95% O2/5% CO2 and maintained at 37° C. Passive stretch procedure was performed to mimic the physiologically relevant internal lumen diameter as previously described. Arterial contractile and relaxing responses were recorded at lumen diameters corresponding to a distending pressure of 100 mmHg in thoracic aorta and femoral artery and at 90% of this diameter in the resistance-sized saphenous artery. […] The diameter tension relationships were constructed according to the law of Laplace for a cylindrical tube: P=T/R (with P for transmural pressure, T for wall tension and R for the lumen radius of the tube). Consequently, wall stiffness can be determined equally by recording 1) changes in tension in response to imposed changes in radius (wire myography) or 2) changes in radius in response to changes in transmural pressure (pressure myography). Here we used the former approach because it has a higher throughput than the latter. Stress-strain relationships and even better “incremental elastic (Young's) modulus” (which require additional recording of wall thickness) only come into play to discriminate between structural and material property contributions to changes in arterial stiffness. Part of the isolated thoracic aorta was studied in the absence and part in the continuous presence of 10 μM indomethacin to inhibit production of prostaglandins that can act as endothelium-derived vasoactive factors in this vessel. The vessels were tested for their contractile response to 40 mM K+, concentration-response curves of phenylephrine (0.01 to 100 μM) and endothelin-1 (1-256 nM) followed by acetylcholine (Ach) (0.01 to 100 μM), PAPA/NO (0.01-10 μM) or Bay60-2770 (0.01-10 μM)-induced relaxations. The wall tension of the vessel segment was continuously recorded with LabChart Pro (ADInstruments, Oxford, UK).

[2] = tested on: elevated blood pressure induced by NOS uncoupling; details: cited from earlier work
[3] = tested on: thoracic aortae of aged NOX5 KI and WT mice; assay: Wire myograph, responses of isolated thoracic aortae; set-up: species or system mouse; details: for Endothelium-independent relaxation induced by PAPA/NO, WT versus KI: thoracic aortae with/without indomethacin, 0.01-10 μM
Protocol: (§1) After mice were sacrificed, thoracic aortae, femoral and saphenous arteries were dissected free from perivascular adipose tissue and mounted in a wire myograph (DMT, Aarhus, DK). The organ chamber was filled with Krebs-Ringer bicarbonate-buffered salt solution (KRB) that was continuously aerated with 95% O2/5% CO2 and maintained at 37° C. Passive stretch procedure was performed to mimic the physiologically relevant internal lumen diameter as previously described. Arterial contractile and relaxing responses were recorded at lumen diameters corresponding to a distending pressure of 100 mmHg in thoracic aorta and femoral artery and at 90% of this diameter in the resistance-sized saphenous artery. […] The diameter tension relationships were constructed according to the law of Laplace for a cylindrical tube: P=T/R (with P for transmural pressure, T for wall tension and R for the lumen radius of the tube). Consequently, wall stiffness can be determined equally by recording 1) changes in tension in response to imposed changes in radius (wire myography) or 2) changes in radius in response to changes in transmural pressure (pressure myography). Here we used the former approach because it has a higher throughput than the latter. Stress-strain relationships and even better “incremental elastic (Young's) modulus” (which require additional recording of wall thickness) only come into play to discriminate between structural and material property contributions to changes in arterial stiffness. Part of the isolated thoracic aorta was studied in the absence and part in the continuous presence of 10 μM indomethacin to inhibit production of prostaglandins that can act as endothelium-derived vasoactive factors in this vessel. […] The wall tension of the vessel segment was continuously recorded with LabChart Pro (ADInstruments, Oxford, UK).

[4] = tested on: saphenous arteries of aged NOX5 KI and WT mice; assay: Wire myograph, relaxing responses of isolated saphenous arteries; set-up: species or system mouse; details: for Endothelium-independent relaxation induced by PAPA/NO, WT versus KI: saphenous arteries, 0.01-10 μM
Protocol: as §1

[5] = tested on: femoral arteries of aged NOX5 KI mice; assay: Superoxide formation, DHE staining of femoral artery cryo-sections; set-up: species or system mouse; details: pre-treatment with 500 μM L-NAME for 30 min at 37° C.
Protocol: Superoxide was measured in femoral arteries using the florescence dye dihydroethidium (DHE) (Thermo Scientific Technology, The Netherlands). Frozen femoral arteries cryo-sections were fixated in 4% paraformaldehyde (PFA) in PBS and then incubated with 2 μM DHE for 30 minutes at 37° C. After three washing steps with PBS, slices were incubated with DAPI (Sigma-Aldrich, The Netherlands) […] for 10 min. Sections were washed in PBS and then mounted using a Dako Fluorescence Mounting Medium ([…], Agilent Technologies). Immunofluorescent signals were viewed using a Leica DM13000 B fluorescence microscope. Some arteries were pre-treated with 500 μM L-NAME for 30 min at 37° C. before performing the DHE staining.

[6] = tested on: elevated blood pressure; details: by improving endothelial function; cited from earlier work

C[C@H](O)C(=O)C1=Nc2c(nc(N)[nH]c2=O)NC1 [sepiapterin]
Ach-induced relaxation after pre-treatment with sepiapterin ([1]; femoral arteries of aged KI mice pre-contracted with phenylephrine, sepiapterin 100 μM, compared with WT): improved relaxation in KI; also recorded: greatly improved and became indistinguishable from those in WT
Blood pressure lowering, preclinical [2]: lower elevated blood pressure induced by NOS uncoupling

CC(=O)N[C@@H](CS)C(=O)O [N-acetylcysteine]
Reversal of impaired Ach-induced relaxation by antioxidant ([1]; 10 μM N-acetylcysteine): not reversed

CCCN(CCCN)/[N+]([O-])=N/O [PAPA/NO]
Endothelium-independent relaxation induced by PAPA/NO, WT versus KI [3]: Neither the PAPA/NO (FIGS. 13 A-C) nor the BAY 60-2770 response (FIG. 11 D) differed between WT and KI mice
Endothelium-independent relaxation induced by PAPA/NO, WT versus KI ([3]; listed as PAPA NO): did not differ
Endothelium-independent relaxation induced by PAPA/NO, WT versus KI [1]: Neither the PAPA/NO (FIGS. 13 A-C) nor the BAY 60-2770 response (FIG. 11 D) differed between WT and KI mice
Endothelium-independent relaxation induced by PAPA/NO, WT versus KI ([1]; listed as PAPA NO): did not differ
Endothelium-independent relaxation induced by PAPA/NO, WT versus KI [4]: Neither the PAPA/NO (FIGS. 13 A-C) nor the BAY 60-2770 response (FIG. 11 D) differed between WT and KI mice
Endothelium-independent relaxation induced by PAPA/NO, WT versus KI ([4]; listed as PAPA NO): did not differ

COC(=O)[C@@H](N)CCCNC(=N)N[N+](=O)[O-] [L-NAME]
Effect of L-NAME on Ach-induced relaxation ([3]; thoracic aortae of aged KI and WT mice contracted with 256 nM endothelin-1, 100 μM L-NAME): reversed
Superoxide formation (DHE staining), increase in KI versus WT [5]: inhibited
Effect of L-NAME on Ach-induced relaxation ([1]; femoral arteries of aged KI and WT mice contracted with 256 nM endothelin-1, 100 μM L-NAME): reversed
Effect of L-NAME on Ach-induced relaxation ([4]; saphenous arteries of aged KI and WT mice contracted with endothelin-1, 100 μM L-NAME): did not modify the relaxing effects of Ach

O=C(O)CCCCN(CCc1cc(F)ccc1OCc1ccc(-c2ccc(C(F)(F)F)cc2)cc1)Cc1ccc(C(=O)O)cc1 [BAY 60-2770]
Relaxation induced by BAY 60-2770, WT versus KI [1]: Neither the PAPA/NO (FIGS. 13 A-C) nor the BAY 60-2770 response (FIG. 11 D) differed between WT and KI mice
Relaxation induced by BAY 60-2770, WT versus KI ([1]; listed as Bay60-2770): did not differ

CC1(C)CC(O)CC(C)(C)N1[O] [tempol]
Reversal of impaired Ach-induced relaxation by antioxidant ([1]; 100 μM tempol): not reversed

Nc1nc2ncc(CNc3ccc(C(=O)N[C@@H](CCC(=O)O)C(=O)O)cc3)nc2c(=O)[nH]1 [folic acid]
Reduction of elevated blood pressure, clinical [6]: clinically effective to reduce elevated blood pressure
